4 compounds from patent US20250129012A1, “ANTI-INFLAMMATORY AND ANALGESIC COMPOUNDS AND USE THEREOF” (JIANGSU ATOM BIOSCIENCE AND PHARMACEUTICAL CO., LTD., priority 2021, published 2025) can be followed below.

Common to all, as to type: in vivo, SD rats
Experiment [1] has as its system gouty arthritis rats (sodium urate, right ankle and knee joint cavities). Kind of experiment: Pharmacodynamics experiment B on gouty arthritis rats: gait score. The settings on record: for Gait Score: dose 0.6 mg/kg gavage, mean. The gist of the method:
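Male SD rats (180-220 g) received test compounds by gavage as 0.5% CMC-Na suspensions, once daily for 7 days before modeling and for 3 days afterward. Gouty arthritis was induced by injecting 0.2 mL sodium urate solution into the right ankle and knee joint cavities. Gait was graded 0-3 using modified Coderre criteria, and group mean scores were compared with the model group by ANOVA-Dunnett T-test (P<0.05).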

For experiment [2] the test system is unchanged. Kind of experiment: Pharmacodynamics experiment B on gouty arthritis rats: ankle swelling rate. Conditions: Rattus norvegicus, po, read-out: Swelling rate (ankle). The gist of the method: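 Male SD rats dosed by gavage at 0.6 mg/kg (0.5% CMC-Na suspension) daily for 7 days before and 3 days after injection of 0.2 mL sodium urate solution into right ankle and knee joints. Ankle circumference measured before and 2-48 h after modeling; swelling rate = swelling degree/baseline ×100%, mean values.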

For another experiment, the system named is TNF-α. Kind of experiment: Inflammatory factor experiment B: TNF-α in knee synovial tissue (ELISA). Conditions: Rattus norvegicus, po, 48 h, read-out: TNF-α percentage decrease %. (In general: An ELISA detects its analyte on a solid surface through an enzyme-linked reagent.)
A further experiment has as its system IL-1β. Kind of experiment: Inflammatory factor experiment B: IL-1β in knee synovial tissue (ELISA). The settings on record: Rattus norvegicus, po, 48 h, read-out: IL-1β percentage decrease %.
A further experiment concerns IL-6. The experiment is described as follows: Inflammatory factor experiment B: IL-6 in knee synovial tissue (ELISA). The settings on record: Rattus norvegicus, po, 48 h, read-out: IL-6 percentage decrease %.

Structures are written as SMILES. Where two headings read alike, the source gives them in different places. Marks after values point to notes of the source that are not given here.

Turning to `CNC(=O)c1ccc2c(cc1=O)[C@@H](NC(C)=O)CCc1cc(OC)c(O)c(OC)c1-2` [Compound 121, (S)-7-acetamido-2-hydroxy-1,3-dimethoxy-N-methyl-9-oxo-5,6,7,9-tetrahydrobenzo[a]heptalen-10-carboxamide], the “Gait Score” value in experiment [1] (2 h) is listed as 0; in experiment [1] (4 h), 0; in experiment [1] (8 h) it was 0.2; in experiment [1] (10 h), 0.2; in experiment [1] (24 h), 0; in experiment [1] (48 h) it was 0. Besides, the change in vivo at 0.6 mg/kg in experiment [2] (2 h) came out at 11.8%; in experiment [2] (4 h), 15.6%; in experiment [2] (8 h) it was 20.9%; in experiment [2] (10 h) it was 22.5%; in experiment [2] (24 h), 16.3%; in experiment [2] (48 h), 9.4%. Moreover, the values for the inhibition in vivo at 0.6 mg/kg in the experiment with TNF-α, with IL-1β and in the experiment with IL-6 were 119%, 67.7% and 231%, respectively.

As to `COc1cc2c(c(OC)c1OC)-c1ccc(-c3cnn(C)c3)c(=O)cc1[C@@H](NC(C)=O)CC2` [Compound 119, (S)—N-{1,2,3-trimethoxy-10-(1-methyl-1H-pyrazol-4-yl)-9-oxo-5,6,7,9-tetrahydrobenzo[a]heptalen-7-yl}acetamide], the “Gait Score” value is recorded as 0 in experiment [1] (2 h); 0 in experiment [1] (4 h); 0.1* in experiment [1] (8 h); 0.4 in experiment [1] (10 h); 0 in experiment [1] (24 h); 0 in experiment [1] (48 h). Besides, the change in vivo at 0.6 mg/kg in experiment [2] (2 h) was 10.4%; in experiment [2] (4 h), 14.1%; in experiment [2] (8 h), 19.4%; in experiment [2] (10 h), 22.2%; in experiment [2] (24 h), 15.8%; in experiment [2] (48 h), 5.3%. Further, the inhibition in vivo at 0.6 mg/kg is 105% with TNF-α, 85.5% with IL-1β and 169% in the experiment on IL-6.

`CNC(=O)N[C@H]1CCc2cc(OC)c(OC)c(OC)c2-c2cc(C)c(OC)c(=O)cc21` [Compound 44, (S)-1-methyl-(1,2,3,10-tetramethoxy-11-methyl-9-oxo-5,6,7,9-tetrahydrobenzo[a]heptalen-7-yl)urea]: the “Gait Score” value in experiment [1] (2 h) was 0; in experiment [1] (4 h) it was 0; in experiment [1] (8 h), 0*; in experiment [1] (10 h), 0*; in experiment [1] (24 h) it was 0; in experiment [1] (48 h), 0. Further, the change in vivo at 0.6 mg/kg in experiment [2] (2 h) is -9.72%; in experiment [2] (4 h) it was -8.92%; in experiment [2] (8 h), -6.13%; in experiment [2] (10 h) it was -1.47%; in experiment [2] (24 h), 3.17%; in experiment [2] (48 h), -6.2%. In addition, the inhibition in vivo at 0.6 mg/kg is 72.6% with TNF-α, 104% with IL-1β and 19.7% with IL-6.

As to `COc1cc2c(c(OC)c1OC)-c1ccc(=O)c(O[C@H]3CCOC3)cc1[C@@H](NC(C)=O)CC2` [Compound 19, N—{(S)-1,2,3-trimethoxy-10-oxo-9-{[(S)-tetrahydrofuran-3-yl]oxy}-5,6,7,10-tetrahydrobenzo[a]heptalen-7-yl}acetamide], the “Gait Score” value is 0.0 in experiment [1] (2 h); 0 in experiment [1] (4 h); 0** in experiment [1] (8 h); 0** in experiment [1] (10 h); 0.2 in experiment [1] (24 h); 0.1 in experiment [1] (48 h). Besides, in experiment [1] (compounds 0.6 mg/kg, colchicine 0.6 and 1.2 mg/kg), the “Gait versus model group, in words” value was “significant improvement in gait occurred at different time points”. Further, the change in vivo at 0.6 mg/kg in experiment [2] (2 h) was 8.77%; in experiment [2] (4 h), 10.9%; in experiment [2] (8 h) it was 17.1%; in experiment [2] (10 h) it was 14.1%; in experiment [2] (24 h), 19.4%; in experiment [2] (48 h), 7.77%. Besides, the results for the inhibition in vivo at 0.6 mg/kg in the experiment on TNF-α, in the experiment on IL-1β and in the experiment on IL-6 were 84.7%, 81.5% and 98.1%, respectively.
